Laboratory results published in ChEMBL document CHEMBL1201862, “PubChem BioAssay data set” (2004).
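Five concentrations, 48 hours, 96-well plates. GI50 marks 50% less growth.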 Calls of active or inactive are those of the source. Rule as the data show it: active = GI50 up to about 1.1 µM and inactive = higher.

Key:
Assay in all cases: inhibition of tumour cell growth, NCI panel, 48 h
786-0 = system: 786-0
A498 = system: A498
A549 = system: A549
ACHN = system: ACHN
BT-549 = system: BT-549
CAKI-1 = system: CAKI-1
CCRF-CEM = system: CCRF-CEM
COLO 205 = system: COLO 205
DU-145 = system: DU-145
EKVX = system: EKVX
HCT-116 = system: HCT-116
HCT-15 = system: HCT-15
HL-60 = system: HL-60
HOP-62 = system: HOP-62
HOP-92 = system: HOP-92
HT-29 = system: HT-29
Hs-578T = system: Hs-578T
IGROV-1 = system: IGROV-1
K562 = system: K562
KM12 = system: KM12
LOX IMVI = system: LOX IMVI
M14 = system: M14
MCF7 = system: MCF7
MDA-MB-231 = system: MDA-MB-231
MDA-MB-435 = system: MDA-MB-435
MDA-N = system: MDA-N
MOLT-4 = system: MOLT-4
Malme-3M = system: Malme-3M
NCI-H226 = system: NCI-H226
NCI-H23 = system: NCI-H23
NCI-H460 = system: NCI-H460
NCI-H522 = system: NCI-H522
NCI/ADR-RES = system: NCI/ADR-RES
OVCAR-3 = system: OVCAR-3
OVCAR-4 = system: OVCAR-4
OVCAR-5 = system: OVCAR-5
OVCAR-8 = system: OVCAR-8
PC-3 = system: PC-3
RPMI-8226 = system: RPMI-8226
RXF 393 = system: RXF 393
SF-268 = system: SF-268
SF-295 = system: SF-295
SF-539 = system: SF-539
SK-MEL-28 = system: SK-MEL-28
SK-MEL-2 = system: SK-MEL-2
SK-MEL-5 = system: SK-MEL-5
SK-OV-3 = system: SK-OV-3
SN12C = system: SN12C
SNB-19 = system: SNB-19
SR = system: SR
SW-620 = system: SW-620
T47D = system: T47D
TK-10 = system: TK-10
U-251 = system: U-251
UACC-257 = system: UACC-257
UACC-62 = system: UACC-62
UO-31 = system: UO-31
HCC 2998 = system: HCC 2998
SNB-75 = system: SNB-75

Measured: GI50

N=C(N)N/N=C/c1c(-c2ccc(N)cc2)nc2sccn12
inactive: 786-0 23.9 µM | A498 25.9 µM | A549 21.2 µM | ACHN 26.9 µM | BT-549 35.5 µM | CAKI-1 33.7 µM | CCRF-CEM 26.8 µM | COLO 205 23.4 µM | DU-145 17.5 µM | EKVX 24.7 µM | HCT-116 23.3 µM | HL-60 16.2 µM | HOP-62 26.5 µM | HOP-92 > 100 µM | HT-29 22.7 µM | Hs-578T 31.3 µM | IGROV-1 60.8 µM | K562 26.1 µM | KM12 21.2 µM | LOX IMVI 32.9 µM | M14 24.2 µM | MCF7 31.6 µM | MDA-MB-231 21 µM | MDA-MB-435 26.5 µM | MDA-N 24.5 µM | MOLT-4 25.4 µM | Malme-3M 61 µM | NCI-H226 > 100 µM | NCI-H23 28.1 µM | NCI-H460 26.4 µM | NCI-H522 26.5 µM | NCI/ADR-RES > 100 µM | OVCAR-3 21.8 µM | OVCAR-4 35.3 µM | OVCAR-5 21.4 µM | OVCAR-8 34.5 µM | PC-3 22.5 µM | RPMI-8226 30.8 µM | RXF 393 18.2 µM | SF-268 34.7 µM | SF-295 23.4 µM | SF-539 26.9 µM | SK-MEL-28 > 100 µM | SK-MEL-2 30.5 µM | SK-MEL-5 > 100 µM | SK-OV-3 24.8 µM | SN12C 21.3 µM | SNB-19 23.2 µM | SR 33.7 µM | SW-620 22.8 µM | T47D 21.1 µM | TK-10 20.9 µM | U-251 25.4 µM | UACC-257 > 100 µM | UACC-62 > 100 µM | UO-31 20 µM
36.9 µM: HCT-15

C=CCSC(C)=O
inactive: 786-0 > 100 µM | A498 > 100 µM | A549 > 100 µM | ACHN > 100 µM | BT-549 > 100 µM | CAKI-1 > 100 µM | CCRF-CEM > 100 µM | COLO 205 > 100 µM | DU-145 > 100 µM | EKVX > 100 µM | HCC 2998 > 100 µM | HCT-116 > 100 µM | HL-60 > 100 µM | HOP-62 > 100 µM | HT-29 > 100 µM | Hs-578T > 100 µM | IGROV-1 > 100 µM | K562 > 100 µM | KM12 > 100 µM | LOX IMVI > 100 µM | M14 > 100 µM | MCF7 > 100 µM | MDA-MB-231 > 100 µM | MDA-MB-435 > 100 µM | MDA-N > 100 µM | MOLT-4 > 10 µM | Malme-3M > 100 µM | NCI-H226 > 100 µM | NCI-H23 > 100 µM | NCI-H460 > 100 µM | NCI-H522 98.9 µM | NCI/ADR-RES > 100 µM | OVCAR-3 > 100 µM | OVCAR-4 > 100 µM | OVCAR-5 > 100 µM | OVCAR-8 > 100 µM | PC-3 > 100 µM | RPMI-8226 > 100 µM | SF-268 > 100 µM | SF-295 > 100 µM | SF-539 > 100 µM | SK-MEL-28 > 100 µM | SK-MEL-2 > 100 µM | SK-MEL-5 > 100 µM | SK-OV-3 > 100 µM | SN12C > 100 µM | SNB-19 > 100 µM | SNB-75 > 100 µM | SR > 100 µM | SW-620 > 100 µM | T47D > 100 µM | TK-10 > 100 µM | U-251 > 100 µM | UACC-62 > 100 µM | UO-31 > 100 µM
> 100 µM: HCT-15

CCOC1CN(C)/C(=N\c2cccc3ccccc23)S1 (stereo not drawn)
> 10 µM: HCT-15
inactive: 786-0 > 10 µM | A498 > 10 µM | A549 > 10 µM | ACHN > 10 µM | BT-549 > 10 µM | CAKI-1 > 10 µM | CCRF-CEM > 10 µM | COLO 205 > 10 µM | DU-145 > 10 µM | EKVX > 10 µM | HCC 2998 > 10 µM | HCT-116 > 10 µM | HOP-62 > 10 µM | HOP-92 > 10 µM | HT-29 > 10 µM | Hs-578T > 10 µM | IGROV-1 > 10 µM | K562 > 10 µM | KM12 > 10 µM | LOX IMVI > 10 µM | M14 > 10 µM | MCF7 > 10 µM | MDA-MB-231 > 10 µM | MDA-MB-435 > 10 µM | MDA-N > 10 µM | MOLT-4 > 10 µM | Malme-3M > 10 µM | NCI-H226 > 10 µM | NCI-H23 > 10 µM | NCI-H460 > 10 µM | NCI-H522 > 10 µM | NCI/ADR-RES > 10 µM | OVCAR-3 > 10 µM | OVCAR-4 > 10 µM | OVCAR-5 > 10 µM | OVCAR-8 > 10 µM | PC-3 > 10 µM | RPMI-8226 > 10 µM | SF-268 > 10 µM | SF-295 > 10 µM | SF-539 > 10 µM | SK-MEL-28 > 10 µM | SK-MEL-5 > 10 µM | SK-OV-3 > 10 µM | SN12C > 10 µM | SNB-19 > 10 µM | SNB-75 > 10 µM | SR > 10 µM | SW-620 > 10 µM | T47D > 10 µM | TK-10 > 10 µM | U-251 > 10 µM | UACC-257 > 10 µM | UACC-62 > 10 µM | UO-31 > 10 µM

NNC(=O)CCCCCCCC(=O)O
inactive: 786-0 > 100 µM | A498 > 100 µM | A549 > 100 µM | ACHN > 100 µM | BT-549 > 100 µM | CAKI-1 > 100 µM | CCRF-CEM > 100 µM | COLO 205 > 100 µM | DU-145 > 100 µM | EKVX > 100 µM | HCC 2998 > 100 µM | HCT-116 > 100 µM | HL-60 > 100 µM | HOP-62 > 100 µM | HOP-92 > 100 µM | HT-29 > 100 µM | Hs-578T > 100 µM | IGROV-1 > 100 µM | K562 > 100 µM | KM12 > 100 µM | LOX IMVI > 100 µM | M14 > 100 µM | MCF7 > 100 µM | MDA-MB-231 > 100 µM | MDA-MB-435 > 100 µM | MDA-N > 100 µM | MOLT-4 > 100 µM | Malme-3M > 100 µM | NCI-H226 > 100 µM | NCI-H23 > 100 µM | NCI-H460 > 100 µM | NCI-H522 > 100 µM | NCI/ADR-RES > 100 µM | OVCAR-3 > 100 µM | OVCAR-4 > 100 µM | OVCAR-5 > 100 µM | OVCAR-8 10.4 µM | PC-3 > 100 µM | RPMI-8226 > 100 µM | SF-295 > 100 µM | SF-539 > 100 µM | SK-MEL-28 > 100 µM | SK-MEL-2 > 100 µM | SK-MEL-5 > 100 µM | SK-OV-3 > 100 µM | SN12C > 100 µM | SNB-19 > 100 µM | SNB-75 > 100 µM | SR > 100 µM | SW-620 > 100 µM | T47D > 100 µM | TK-10 > 100 µM | U-251 > 100 µM | UACC-257 > 100 µM | UACC-62 > 100 µM | UO-31 > 100 µM
> 100 µM: HCT-15

O=C(O)CN(CC(=O)O)Cc1cc2c(cc1O)Oc1cc(O)c(CN(CC(=O)O)CC(=O)O)cc1C21OC(=O)c2ccccc21 [OFTASCEINE]
inactive: 786-0 > 100 µM | A498 > 100 µM | A549 > 100 µM | ACHN > 100 µM | BT-549 > 100 µM | CAKI-1 > 100 µM | CCRF-CEM > 100 µM | COLO 205 > 100 µM | DU-145 > 100 µM | EKVX > 100 µM | HCC 2998 > 100 µM | HCT-116 > 100 µM | HL-60 > 100 µM | HOP-62 > 100 µM | HOP-92 > 100 µM | HT-29 > 100 µM | Hs-578T > 100 µM | IGROV-1 > 100 µM | K562 > 100 µM | KM12 > 100 µM | LOX IMVI > 100 µM | M14 > 100 µM | MCF7 > 100 µM | MDA-MB-231 > 100 µM | MDA-MB-435 > 100 µM | MDA-N > 100 µM | MOLT-4 > 100 µM | NCI-H226 > 100 µM | NCI-H23 > 100 µM | NCI-H460 > 10 µM | NCI-H522 > 100 µM | NCI/ADR-RES > 100 µM | OVCAR-3 > 100 µM | OVCAR-4 > 100 µM | OVCAR-5 > 100 µM | OVCAR-8 > 100 µM | PC-3 > 100 µM | RPMI-8226 > 100 µM | SF-268 > 100 µM | SF-295 > 100 µM | SF-539 > 100 µM | SK-MEL-28 > 100 µM | SK-MEL-2 > 100 µM | SK-MEL-5 > 100 µM | SK-OV-3 > 100 µM | SN12C > 100 µM | SNB-19 > 100 µM | SNB-75 > 100 µM | SR > 100 µM | SW-620 > 100 µM | T47D > 100 µM | TK-10 > 100 µM | U-251 > 100 µM | UACC-257 > 100 µM | UACC-62 > 100 µM | UO-31 > 100 µM
> 100 µM: HCT-15
